Reference: paper PMC7689250, “Synthetic Peptide Libraries Designed From a Minimal Alpha-Helical Domain of AS-48-Bacteriocin Homologs Exhibit Potent Antibacterial Activity” (Frontiers in Microbiology, 2020)
Like-named read-outs stand apart in the source and are kept apart here. Residues, ends and D or L forms follow the SMILES beside them.

How the values were obtained:
[1] = tested on: E. coli (BL21); type: cell-based, Escherichia coli
Outline: (§1)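 MIC in Mueller-Hinton broth with 1 × 10^6 CFU/mL bacteria, overnight cultures grown first in LB (E. coli, P. aeruginosa, S. aureus) or Todd-Hewitt (S. pyogenes); growth read as OD 600. Library members screened at half the parent peptide MIC; MBC as lowest concentration giving no colonies after plating MIC wells, 37°C overnight.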

[2] = tested on: S. pyogenes (M1); type: cell-based, Streptococcus pyogenes; settings: for MBC: M1
Outline: as §1

[3] = tested on: P. aeruginosa (PAO1); type: cell-based, Pseudomonas aeruginosa; settings: for MBC: PAO1; for MIC: PAO1, 16 h
Outline: as §1

[4] = tested on: human keratinocyte cell line (HaCaT); assay: HaCaT cytotoxicity, ethidium homodimer assay; type: cell-based; settings: 16 h, 37°C, DMEM + 10% FBS, normalised to saponin, triplicate
Protocol: To assess cytotoxicity of optimized peptides in mammalian cells, an immortalized human keratinocyte cell line (HaCaT) was used. Cells were grown to 80% confluency in 24-well culture dishes and washed with PBS (Thermo Fisher). […] After incubation, the cells were washed with sterile PBS, followed by a covered incubation with 4 μM ethidium homodimer (Molecular Probes) for 30 min at room temperature. Fluorescence was measured using the Synergy H1 Microplate Reader set to 528 nm excitation, 617 nm emission, and a cutoff value of 590 nm. Saponin (0.1% wt/vol, Sigma) was added to each well followed by a covered incubation for 20 min at room temperature, followed by another measurement on the Synergy H1 Microplate Reader using the same settings to normalize readings to the number of cells per well and determine the percent cytotoxicity.

[5] = tested on: sheep erythrocytes; type: cell-based; settings: red cells of sheep, 1 h
Outline: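 Washed defibrinated sheep blood, diluted 1:25 in PBS, incubated 1 h at 37 °C with peptide at the MIC-assay concentrations (sample:blood 1:10). Haemoglobin release read as supernatant absorbance at 450 nm; percent haemolysis normalised to PBS and 10% Triton controls.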

[6] = tested on: S. aureus (USA300); type: cell-based, Staphylococcus aureus; settings: for MBC: USA300; for MIC: USA300, 16 h
Outline: as §1

[7] = tested on: E. coli strain BL21; assay: Propidium iodide uptake by FACS; type: cell-based, Escherichia coli; settings: 2, 4, 8, 16 or 32 μM peptide in saline, 1 h, ambient temperature, 1 × 10^4 events
Protocol: For determination of bacterial cell death via membrane disruption, bacterial cells were subjected to propidium iodide (PI) uptake and quantified using fluorescence-activated cell sorting (FACS). E. coli strain BL21 were first diluted to a OD 600 of 1.0. Cells were washed three times in 0.85% NaCl (saline) solution and resuspended in either 1.5 mL of either saline, 70% isopropyl alcohol, or peptide diluted to either 2, 4, 8, 16 or 32 μM in saline for 1 h at ambient temperature. Following incubation, cells were pelleted and resuspended in 1 mL of saline with 1.5 μL/mL propidium iodide and incubated in the dark for 15 min. The samples were washed again with saline three times and run through a Beckman Coulter FC500 flow cytometer. The FL3 detector, using the propidium iodine PE-Alexa Fluor 610 emission filter, was used to sort the cells. 1 × 10^4 events were collected for each sample run.

[8] = tested on: GFP-expressing E. coli strain BL21; assay: Live imaging of GFP leakage; type: cell-based, Escherichia coli; settings: 16 μM peptide, 8 h, 37°C, images every 10 min
Protocol: To observe bacterial cell death in the presence of peptide in real time, fluorescence microscopy was employed using GFP-expressing E. coli strain BL21. MIC assays were conducted against BL21-GFP to determine the peptide concentration used for microscopy experiments. The peptide was suspended in PBS and added to diluted bacterial cells. GFP-expressing E. coli in the presence of peptide were imaged on the Eclipse Ti-E inverted microscope (Nikon) using GFP and DIC channels for 8 h at 37°C, with images taken every 10 min ([Fields et al., 2020]). Syn-xiamencin-2, a peptide with no detectable antimicrobial activity below 128 μM was also evaluated as a negative peptide candidate control.

[9] = E. coli BL21, running text b43, unit printed nm

| SMILES | MBC ([1]; BL21) [µM] | MIC ([1]; E. coli BL21) [µM] | MBC [2] [µM] | MIC ([2]; M1, 16 h) [µM] | MBC [3] [µM] | MIC [3] [µM] | concentration at which peptide is cytotoxic [4] [µM] | Percent Hemolysis [5] [%] | MBC [6] [µM] | MIC [6] [µM] | MIC ([1]; BL21, 16 h) [µM] | PI positive cells [7] | GFP leakage / change in fluorescence [8] | MIC ([1]; BL21) [µM] | MBC [1, 9] | MIC [1, 9] | MIC ([2]; S. pyogenes M1) [µM] | MIC ([2]; S. pyogenes M1, running text b43, unit printed nm) [µM] |
| --- | --- | --- | --- | --- | --- | --- | --- | --- | --- | --- | --- | --- | --- | --- | --- | --- | --- | --- |
| CC[C@H](C)[C@H](NC(=O)[C@H](CCCNC(=N)N)NC(=O)CNC(=O)[C@@H](NC(=O)[C@H](CCCCN)NC(=O)[C@H](CCCNC(=N)N)NC(=O)[C@@H](NC(=O)[C@H](Cc1ccc(O)cc1)NC(=O)[C@H](CCCNC(=N)N)NC(=O)[C@H](CCCNC(=N)N)NC(=O)[C@H](CC(C)C)NC(=O)[C@H](CCC(=O)O)NC(=O)[C@H](CCCCN)NC(=O)[C@H](C)NC(=O)[C@@H](NC(=O)[C@H](CCCNC(=N)N)NC(=O)[C@H](CC(N)=O)NC(=O)[C@@H](NC(=O)CNC(=O)[C@H](C)N)[C@@H](C)O)[C@@H](C)CC)[C@@H](C)CC)C(C)C)C(=O)N[C@@H](C)C(=O)N[C@@H](CCCNC(=N)N)C(=O)N[C@@H](CCCCN)C(=O)N[C@@H](Cc1c[nH]c2ccccc12)C(=O)N[C@@H](Cc1c[nH]c2ccccc12)C(=O)O [Syn-sordellicin-64] (H-AGTNRIAKELRRYIRKVGRIARKWW-OH; N-terminus and C-terminus assumed) | 0.5 | 0.25 | 1 | 1 | 8 | 8 | ≥ 32 | 18.8 | 8 | 8 |  |  |  |  |  |  |  |  |
| CC[C@H](C)[C@H](NC(=O)[C@H](CCCCN)NC(=O)[C@H](CCCCN)NC(=O)[C@H](CCCCN)NC(=O)[C@H](CC(C)C)NC(=O)[C@H](CCCNC(=N)N)NC(=O)[C@H](CCC(N)=O)NC(=O)[C@H](Cc1ccccc1)NC(=O)[C@@H](NC(=O)[C@@H](NC(=O)[C@H](CCC(=O)O)NC(=O)[C@H](CCCCN)NC(=O)CNC(=O)[C@H](C)N)[C@@H](C)O)[C@@H](C)CC)C(=O)N[C@@H](CCC(N)=O)C(=O)N[C@@H](CCC(=O)O)C(=O)N[C@@H](CCCCN)C(=O)N[C@@H](Cc1c[nH]c2ccccc12)C(=O)N[C@@H](CCCCN)C(=O)N[C@@H](CCCNC(=N)N)C(=O)N[C@@H](C)C(=O)N[C@H](C(=O)N[C@H](C(=O)N[C@@H](C)C(=O)N[C@@H](Cc1c[nH]c2ccccc12)C(=O)O)[C@@H](C)CC)[C@@H](C)O [Syn-larvacin-43] (H-AGKETIFQRLKKKIQEKWKRATIAW-OH; N-terminus and C-terminus assumed) | 1 |  | 4 | 4 | 16 | 16 |  | 19.9 | 4 | 4 | 1 | higher cell counts of PI-stained cells in a dose-dependent manner | significant decrease in fluorescence |  |  |  |  |  |
| CC[C@H](C)[C@H](NC(=O)[C@H](CCCNC(=N)N)NC(=O)[C@H](CCC(N)=O)NC(=O)[C@@H](NC(=O)[C@H](Cc1c[nH]c2ccccc12)NC(=O)[C@H](C)N)[C@@H](C)O)C(=O)N[C@@H](CCCCN)C(=O)N[C@@H](C)C(=O)N[C@@H](Cc1ccc(O)cc1)C(=O)N[C@@H](CC(C)C)C(=O)N[C@@H](CCCNC(=N)N)C(=O)N[C@@H](CCCNC(=N)N)C(=O)N[C@@H](CCC(=O)O)C(=O)N[C@H](C(=O)N[C@@H](CCCNC(=N)N)C(=O)N[C@@H](CCCCN)C(=O)N[C@@H](CCCNC(=N)N)C(=O)NCC(=O)N[C@@H](CCCNC(=N)N)C(=O)N[C@@H](CCCCN)C(=O)N[C@@H](C)C(=O)N[C@H](C(=O)N[C@H](C(=O)N[C@@H](C)C(=O)N[C@@H](Cc1c[nH]c2ccccc12)C(=O)O)[C@@H](C)CC)C(C)C)[C@@H](C)CC [Syn-sordellicin-19] (H-AWTQRIKAYLRREIRKRGRKAVIAW-OH; N-terminus and C-terminus assumed) | 2 |  | 2 | 2 | 16 | 8 | ≥ 64 |  | >128 | >128 | 2 |  |  |  |  |  |  |  |
| CC[C@H](C)[C@H](NC(=O)[C@H](CCCNC(=N)N)NC(=O)CNC(=O)[C@@H](NC(=O)[C@H](CCCCN)NC(=O)[C@H](CCCNC(=N)N)NC(=O)[C@@H](NC(=O)[C@H](Cc1ccc(O)cc1)NC(=O)[C@H](CCCNC(=N)N)NC(=O)[C@H](CCCNC(=N)N)NC(=O)[C@H](CC(C)C)NC(=O)[C@H](CCC(=O)O)NC(=O)[C@H](CCCCN)NC(=O)[C@H](C)NC(=O)[C@@H](NC(=O)[C@H](CCCNC(=N)N)NC(=O)[C@H](CC(N)=O)NC(=O)[C@@H](NC(=O)CNC(=O)[C@H](C)N)[C@@H](C)O)[C@@H](C)CC)[C@@H](C)CC)C(C)C)C(=O)N[C@@H](C)C(=O)N[C@@H](CCCNC(=N)N)C(=O)N[C@@H](CCCCN)C(=O)N[C@@H](CCCCN)C(=O)N[C@@H](Cc1c[nH]c2ccccc12)C(=O)O [Syn-sordellicin-88] (H-AGTNRIAKELRRYIRKVGRIARKKW-OH; N-terminus and C-terminus assumed) | 1 |  | 1 | 1 | 16 | 16 | ≥ 64 | 11.7 | 64 | 64 | 1 |  |  |  |  |  |  |  |
| CC(C)O [Isopropyl alcohol, isopropyl alcohol, reference compound] |  |  |  |  |  |  |  |  |  |  |  | large peak within the PI florescence range |  |  |  |  |  |  |
| CC[C@H](C)[C@H](NC(=O)[C@H](Cc1c[nH]c2ccccc12)NC(=O)[C@H](C)NC(=O)[C@H](CCCNC(=N)N)NC(=O)[C@H](CCCCN)NC(=O)CNC(=O)[C@H](CCCCN)NC(=O)[C@H](CCC(=O)O)NC(=O)[C@H](CCC(N)=O)NC(=O)[C@@H](NC(=O)[C@H](CCCCN)NC(=O)[C@H](CCCCN)NC(=O)[C@H](CCCCN)NC(=O)[C@H](CC(C)C)NC(=O)[C@H](CCCNC(=N)N)NC(=O)[C@H](CCC(N)=O)NC(=O)[C@H](Cc1ccccc1)NC(=O)[C@@H](NC(=O)[C@@H](NC(=O)[C@H](CCC(=O)O)NC(=O)[C@H](CCCCN)NC(=O)CNC(=O)[C@H](C)N)[C@@H](C)O)[C@@H](C)CC)[C@@H](C)CC)C(=O)N[C@@H](C)C(=O)N[C@@H](Cc1c[nH]c2ccccc12)C(=O)O [Syn-larvacin-27] (H-AGKETIFQRLKKKIQEKGKRAWIAW-OH; N-terminus and C-terminus assumed) |  |  | 0.5 |  | 64 | 32 |  |  | 8 | 8 | <0.0156 | higher cell counts of PI-stained cells in a dose-dependent manner | significant decrease in fluorescence | 0.0156 | below 15.6 nM | below 15.6 nM | 0.125 | 0.125 |
